The values below come from patent US20220249493A1, “PHARMACEUTICAL COMPOSITION COMPRISING UDENAFIL” (COREPHARM BIO CO., LTD., priority 2019, published 2022).

Converted amounts (≈) assume the structure as drawn.

The series can be described thus: Udenafil solubility test at different pHs. The format is physicochemical. The settings on record: thermodynamic from solid; in purified water (Comparative Example 1). Here is the method: A pH adjusting agent was added to 5 ml of purified water, and the mixture was stirred for 10 minutes, and then udenafil was added thereto, thus preparing the solutions shown in Table 1 above.
Detector: UV detector (292 nm)
Column temperature: 30° C.
Mobile phase: 2.72 g of KH2PO4 dissolved in 1 L of purified water (A); acetonitrile (B); A:B=700:300

`CCCOc1ccc(S(=O)(=O)NCCC2CCCN2C)cc1-c1nc2c(CCC)nn(C)c2c(=O)[nH]1` (stereo not shown) [Udenafil, 5-[2-propyloxy-5-(1-methyl-2-pyrrolidinyleneamidosulfonyl)phenyl]-1-methyl-1-propyl-1,6-dihydro-7H-pyrazolo(4,3-d)pyrimidin-7-one] gave a solubility at 2 h of roughly 120 µg/mL (≈ 232 µM).
